Assay results as given in patent publication US9458123B2, “Methods, pharmaceutical compositions, therapeutic systems, and compounds for treating B cell malignancies” (University of Rochester, priority 2012, dated 2016).
“Also recorded” adds a separate entry of the source.

Experiments:
[1] = tested on: PMA-induced NF-κB activation in 293T-NF-luc cells; experiment: NF-κB luciferase reporter assay, PMA stimulation; assay type: cell-based; settings: PMA 100 ng/ml, 6 hours
Protocol: In FIG. 1B, 293T-NF-luc cells were pretreated with the indicated concentrations of NSC697923 or DMSO (final concentration 0.2%; control) for 1 hour. The cells were then stimulated with PMA (100 ng/ml) or TNFα(10 ng/ml) for 6 hours, and the green fluorescence (from GFP for normalization) and luciferase activity in the cell lysate were measured. Data were expressed as the percentage activity of the control (mean+/−standard deviation (SD); n=3). […] The cells were harvested at the indicated times after stimulation, and phosphorylation of IKK and IκBα were analyzed by western blotting. Analysis of actin was used as the loading control.
FIGS. 2A-2D show the effect of NSC697923 related compounds on NF-κB activation induced by PMA. […]
HEK293T cells were transfected with the pNF-κB luciferase reporter construct, which contains four copies of the NF-κB binding site upstream of firefly luciferase gene (Moran et al., “Protein Kinase C-Associated Kinase can Activate NFkappaB in Both a Kinase-Dependent and a Kinase Independent Manner,” J. Biol. Chem. 278:21526-21533 (2003), which is hereby incorporated by reference in its entirety), together with the pBabe-puro for selection. Individual clones, selected with 1.5 μg/m puromycin, were assessed for NF-κB-luciferase reporter activation by TNFα and PMA. […]

[2] = target: T1, Ubc13 (Homo sapiens, UniProt P61088); experiment: In vitro Ubc13~Ub thioester conjugate formation; assay type: biochemical; settings: E1, Ubc13-Uev1A, ubiquitin, ATP
T1 construct: purchased Boston Biochem Inc E2-600 (Ubc13); E2-662 (Uev1A)
T1 sequence (P61088 whole entry): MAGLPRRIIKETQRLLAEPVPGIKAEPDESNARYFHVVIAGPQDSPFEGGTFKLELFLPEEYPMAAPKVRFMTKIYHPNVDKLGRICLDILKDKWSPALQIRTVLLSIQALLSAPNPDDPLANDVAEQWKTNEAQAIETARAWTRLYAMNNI
T1 sequence (Q13404 whole entry partner): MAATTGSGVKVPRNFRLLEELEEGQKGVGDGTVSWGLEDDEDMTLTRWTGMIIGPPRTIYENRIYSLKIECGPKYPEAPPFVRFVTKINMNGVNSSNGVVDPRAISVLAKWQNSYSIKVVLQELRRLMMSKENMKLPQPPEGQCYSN
Protocol: Purified GST or GST-Ubc13 fusion proteins were incubated with the cell extract prepared from OCI-Ly10 cells with or without the presence of NSC697923 as indicated. The amounts of Uev1A protein associated with GST or GST-Ubc13 were analyzed by western blotting. The first lane was loaded with 8% of the input cell lysate. […] The assay was carried out as described in FIG. 4A, except that the loading buffer for SDS-PAGE gel contains no reducing agent, unless otherwise specified, and the reaction was analyzed by western blotting with a Ubc13-specific antibody. […] The assay was carried out as in FIG. 5B, except that UbcHSc, instead of Ubc13 and Uev1A, was used in the ubiquitination reaction and that a UbcHSc antibody was used for western blot analysis.
For detecting the E2-ubiquitin (Ubc13˜Ub or UbcH5c˜Ub) thioester conjugates, the reactions were carried out as described above without GST-TRAF6. The reactions were terminated with the SDS-sample buffer without a reducing agent unless specified. The products were analyzed by western blotting with an anti-Ubc13 or anti-UbcHSc antibody as indicated.

[3] = target: T2, Ubc13 in OCI-Ly10 cells (Homo sapiens, UniProt P61088); experiment: Ubc13~Ub conjugate formation in DLBCL cells, western blot; assay type: cell-based; settings: 3 hours
T2 construct: endogenous in cells; host or cells: OCI-Ly10
T2 sequence (P61088 whole entry): as the sequence (P61088 whole entry) above
Protocol: (§1) OCI-Ly10 cells were treated with the indicated concentrations of NSC697923 for 3 hours. The levels of Ubc13˜Ub conjugate were analyzed by western blotting using a Ubc13-specific antibody as described in FIG. 4B. […] OCI-Ly10 cells were treated with DMSO (0.1%) or the indicated concentrations of NSC697923 for 3.5 hours. The levels of the indicated proteins were analyzed by western blotting with the respective antibodies.

[4] = tested on: constitutive NF-κB signaling in OCI-Ly10 cells; experiment: Constitutive NF-κB signaling in ABC DLBCL cells, western blot; assay type: cell-based; settings: 3.5 hours
Protocol: as §1

[5] = tested on: p53 signaling in OCI-Ly10 cells; experiment: Nuclear p53 and p21 expression, western blot; assay type: cell-based; settings: 3.5 hours
Protocol: OCI-Ly10 cells were treated with indicated concentrations of NSC697923 for 3.5 hours. The level of p53 in the nuclear extract and the level of p21 in the whole cell lysates were analyzed by western blotting.

[6] = tested on: breast cancer MDA-MB231 cells; experiment: Cell viability, trypan blue exclusion assay; assay type: cell-based; settings: 24 hours
Protocol: (§2) 1×10^6 cells were plated in 10 cm plates and cultured overnight. The indicated concentrations of NSC697923 were then added into culture medium for 24 hours before the cell viability was analyzed by trypan blue exclusion assay. Shown are the averages from three independent experiments.
(§3) Apoptosis was assayed using the 7AAD/annexin V apoptosis kit (BD Bioscience) as previously described (Kim et al., “Protein Kinase C-Associated Kinase is Required for NF-kappaB Signaling and Survival in Diffuse Large B-Cell Lymphoma Cells,” Blood 111:1644-1653 (2008), which is hereby incorporated by reference in its entirety). Analysis of the cell cycle distribution of the treated cells was carried out with propidium iodide (PI) and BrdU double staining as previously described (DeRan et al., “Assessing G1-to-S-Phase Progression after Genotoxic Stress,” Methods Mol. Biol. 782:221-230 (2011) and Su et al., “DNA Damage Induces Downregulation of Histone Gene Expression Through the G1 Checkpoint Pathway,” EMBO. J. 23:1133-1143 (2004), each of which is hereby incorporated by reference in its entirety).

[7] = tested on: osteosarcoma U2OS cells; experiment: Cell viability, trypan blue exclusion assay; assay type: cell-based; settings: 24 hours
Protocol: as §2, §3

## Cc1ccc(S(=O)(=O)c2ccc([N+](=O)[O-])o2)cc1 [NSC697923, 2-nitro-5-tosylfuran]
[1]
  PMA-induced NF-κB activation (luciferase reporter): selective inhibitory effect; also recorded: inhibits NF-κB activation induced by PMA
[2]
  formation of Ubc13~Ub thioester conjugate: inhibited formation of this thioester conjugate
[3]
  formation of the Ubc13~Ub conjugate in cells: inhibited formation of the Ubc13˜Ub conjugate
[4]
  expression of Mc1-1: is inhibited
  expression of p100: is inhibited
  phosphorylation of IKK: inhibited phosphorylation
  phosphorylation of IκBα: inhibited phosphorylation
[5]
  nuclear level of p53 protein: increased
  p21 expression: increased
[6]
  toxic effects on proliferation and survival compared to DLBCL cells: much less toxic effects
[7]
  toxic effects on proliferation and survival compared to DLBCL cells: much less toxic effects
